Usually IC50 stands for the concentration needed to halve the response being measured.

We go through eight molecules from ChEMBL document CHEMBL4184292, “Synthetic strigolactone analogues reveal anti-cancer activities on hepatocellular carcinoma cells” (Bioorg Med Chem Lett, 2018).

Data set [1] relates to HepG2. The data set is described as follows: Cytotoxicity against human HepG2 cells assessed as reduction in cell viability at 80 uM after 24 hrs by WST1 assay relative to control. Type of data set: functional. (Tetrazolium assays rely on reduction of a dye to a coloured formazan, in cell work by metabolically active cells.)
Data set [2] concerns HepG2. The data set is described as follows: Cytotoxicity against human HepG2 cells assessed as reduction in cell viability after 24 hrs by WST1 assay. Type of data set: functional, cell-based. Particulars: for IC50: HepG2, 24 h.
For data set [3], the system named is HepG2. The data set is described as follows: Cytotoxicity against human HepG2 cells assessed as reduction in cell viability at 40 uM after 24 hrs by WST1 assay. Type of data set: functional, cell-based.
Data set [4] deals with HepG2. The data set is described as follows: Cytotoxicity against human HepG2 cells assessed as reduction in cell viability at 80 uM after 12 hrs by WST1 assay relative to control. Type of data set: functional.
In data set [5] the test system is HepG2. In words: Induction of apoptosis in human HepG2 cells assessed as late apoptotic cells at 60 uM after 24 hrs by Annexin-V/7AAD staining based flow cytometry (reference value: 0.2 to 0.4%). The class given is functional. A general note: Flow cytometry measures light scatter and fluorescence of single cells or particles in a stream.
The subject of data set [6] is HepG2. In words: Induction of apoptosis in human HepG2 cells assessed as late apoptotic cells at 80 uM after 6 hrs by Annexin-V/7AAD staining based flow cytometry (reference value: 0.2 to 0.7 %). Type of data set: functional.
Data set [7] relates to HepG2. In words: Induction of apoptosis in human HepG2 cells assessed as late apoptotic cells at 80 uM after 2 hrs by Annexin-V/7AAD staining based flow cytometry (reference value: 0.2 to 0.7 %). The class given is functional.
In data set [8] the test system is HepG2. In words: Cytotoxicity against human HepG2 cells assessed as reduction in cell viability at 80 uM by WST1 assay. The class given is functional, cell-based. Particulars: TDE = time-dependent effect.
Data set [9] deals with HepG2. The data set is described as follows: Induction of apoptosis in human HepG2 cells assessed as early apoptotic cells at 80 uM after 6 hrs by Annexin-V/7AAD staining based flow cytometry (reference value: 3.8 to 4.2 %). Type of data set: functional.
Data set [10] relates to HepG2. In words: Cytotoxicity against human HepG2 cells assessed as reduction in cell viability at 80 uM after 8 hrs by WST1 assay relative to control. Type of data set: functional.
Data set [11] deals with HepG2. In words: Induction of apoptosis in human HepG2 cells assessed as late apoptotic cells at 80 uM after 24 hrs by Annexin-V/7AAD staining based flow cytometry (reference value: 0.2 to 0.4%). Type of data set: functional.
For data set [12], the system named is HepG2. In words: Induction of apoptosis in human HepG2 cells assessed as early apoptotic cells at 40 uM after 24 hrs by Annexin-V/7AAD staining based flow cytometry (reference value: 5.1 to 12.5 %). The class given is functional.
Data set [13] has as its system HepG2. In words: Induction of apoptosis in human HepG2 cells assessed as early apoptotic cells at 80 uM after 24 hrs by Annexin-V/7AAD staining based flow cytometry (reference value: 5.1 to 12.5 %). Type of data set: functional.
Data set [14] concerns HepG2. In words: Induction of apoptosis in human HepG2 cells assessed as early apoptotic cells at 60 uM after 24 hrs by Annexin-V/7AAD staining based flow cytometry (reference value: 5.1 to 12.5 %). Type of data set: functional.
Data set [15] has as its system HepG2. The data set is described as follows: Induction of apoptosis in human HepG2 cells assessed as early apoptotic cells at 20 uM after 24 hrs by Annexin-V/7AAD staining based flow cytometry (reference value: 5.1 to 12.5 %). Type of data set: functional.
In data set [16] the test system is HepG2. The data set is described as follows: Antimigratory activity in human HepG2 cells at 80 uM after 24 hrs by wound-scratch assay. The class given is functional, cell-based.
Data set [17] has as its system HepG2. The data set is described as follows: Cytotoxicity against human HepG2 cells assessed as reduction in cell viability at 80 uM after 4 hrs by WST1 assay relative to control. Type of data set: functional.
In a further data set the test system is PC-3. The data set is described as follows: Cytotoxicity against human PC3 cells assessed as reduction in cell viability after 24 hrs by WST1 assay. As to conditions: for IC50: PC-3, 24 h. Type of data set: functional, cell-based.
Data set [18] deals with HepG2. In words: Induction of apoptosis in human HepG2 cells assessed as late apoptotic cells at 40 uM after 24 hrs by Annexin-V/7AAD staining based flow cytometry (reference value: 0.2 to 0.4%). Type of data set: functional.
The subject of data set [19] is HepG2. The data set is described as follows: Induction of apoptosis in human HepG2 cells assessed as early apoptotic cells at 80 uM after 2 hrs by Annexin-V/7AAD staining based flow cytometry (reference value: 3.8 to 4.2 %). The class given is functional.
Data set [20] can be described thus: Cytotoxicity against BHK cells assessed as reduction in cell viability at 80 uM after 48 hrs by WST1 assay relative to control. Particulars: hamster. Type of data set: cell-based, Mesocricetus auratus.
The next data set concerns Jurkat. The data set is described as follows: Cytotoxicity against human Jurkat cells assessed as reduction in cell viability after 24 hrs by WST1 assay. The class given is functional, cell-based.
Data set [21] deals with HepG2. In words: Induction of apoptosis in human HepG2 cells assessed as late apoptotic cells at 20 uM after 24 hrs by Annexin-V/7AAD staining based flow cytometry (reference value: 0.2 to 0.4%). The class given is functional.
Data set [22] relates to HepG2. In words: Antimigratory activity in human HepG2 cells at 100 uM after 24 hrs by wound-scratch assay. Type of data set: functional, cell-based.
The subject of data set [23] is HepG2. In words: Growth inhibition of human HepG2 cells at 100 uM after 24 hrs. Type of data set: functional, cell-based.

Activity calls are given as the source filed them. The calls are words filed in the database; no cut-off is given here.

On to `CC1=CC(Oc2ccc(Cl)c(Cl)c2)OC1=O` (stereo not drawn), for which the Activity with HepG2 [1] is 43.5%. Besides, in the data set with HepG2 [2], the IC50 came out at 85.9 µM. Further, the result in the data set on HepG2 [3] was Active.

For the molecule `COC(=O)/C(=C/OC1C=C(C)C(=O)O1)c1ccccc1` (stereo not drawn), the Activity is 31% in the data set on HepG2 [4]; 0.4% with HepG2 [5]; 1.2% in the data set on HepG2 [6]; 1.7% with HepG2 [7]; “Tde” in the data set with HepG2 [8]; 13.3% in the data set on HepG2 [9]. Also, the Activity in the data set with HepG2 [10] is 20%; in the data set on HepG2 [11], 0.2%; with HepG2 [12], 13.1%; in the data set with HepG2 [13], 26.6%; in the data set on HepG2 [14], 18.5%; with HepG2 [1], 63.4 - 73%. Also, the Activity is 9.5% with HepG2 [15]; “Dose-dependent effect” in the data set on HepG2 [2]; 13% in the data set with HepG2 [17]; “Dose-dependent effect” in the data set with PC-3; 0.2% with HepG2 [18]; 3.8% in the data set on HepG2 [19]. Moreover, the Activity in [20] is 18%; with Jurkat, “Dose-dependent effect”; with HepG2 [21] it was 0.2%. For the same molecule, the result in the data set on HepG2 [16] was Active. Also, the IC50 amounted to 63.5 µM with HepG2 [2], 55.1 µM in the data set on PC-3 and 46.4 µM in the data set on Jurkat.

Take `COC(=O)/C(=C/OC1C=C(C)C(=O)O1)c1ccc(Cl)cc1` (stereo not drawn): the Activity with HepG2 [4] was 26%; in the data set with HepG2 [5], 0.5%; in the data set on HepG2 [6], 1.5%; in the data set on HepG2 [7], 0.9%; in the data set with HepG2 [8], “Tde”; with HepG2 [9], 13.7%. For the same molecule, the Activity is 19% with HepG2 [10]; 0.5% with HepG2 [11]; 11.3% with HepG2 [12]; 20.9% in the data set on HepG2 [13]; 16.1% in the data set on HepG2 [14]; 61 - 61.4% with HepG2 [1]. Also, the Activity is 9.5% with HepG2 [15]; “Dose-dependent effect” with HepG2 [2]; 11% in the data set on HepG2 [17]; “Dose-dependent effect” in the data set on PC-3; 0.4% in the data set with HepG2 [18]; 4.3% in the data set on HepG2 [19]. Besides, the figures for the Activity (in [20]; in the data set on Jurkat; in the data set on HepG2 [21]) were 23%, “Dose-dependent effect” and 0.2%, respectively. The result with HepG2 [16] and in the data set on HepG2 [3] was Active. For the same molecule, the results for the IC50 with HepG2 [2], with PC-3 and in the data set on Jurkat were 67.8 µM, 56.6 µM and 44.7 µM, respectively.

In the case of `CC1=CC(Oc2ccc(F)cc2Br)OC1=O` (stereo not drawn), the Activity in the data set on HepG2 [1] is given as 39%. Besides, the IC50 in the data set on HepG2 [2] turned out to be 90.3 µM.

As for `COC(=O)/C(=C/OC1C=C(C)C(=O)O1)c1ccc(OC)cc1` (stereo not drawn), the Activity in the data set on HepG2 [1] was 50.1%; in data set [20], 33%. Besides, in the data set on HepG2 [2], the IC50 came out at 82.1 µM. Also, the outcome in the data set on HepG2 [3] was Active.

On to `CC1=CC(=O)C(C(C)C)=CC1=O` [THYMOQUINONE], for which, in the data set with HepG2 [22], the result was Active. In addition, the values for the Activity in the data set with HepG2 [11] and with HepG2 [13] were 3.3% and 91.8%, respectively. Moreover, in the data set with HepG2 [23], the “growth inhibition (GI)” value was “Active”.

In the case of `CC1=CC(Oc2cc(Cl)cc(Cl)c2)OC1=O` (stereo not drawn), the Activity in the data set on HepG2 [1] was determined as 40.7%. Moreover, in the data set on HepG2 [2], the IC50 stood at 89.5 µM.

On to `CC1=CC(Oc2c(Br)cccc2C#N)OC1=O` (stereo not drawn), for which, in the data set on HepG2 [1], the Activity stood at 43.8%. Also, the IC50 with HepG2 [2] amounted to 87.6 µM.
